Experimental data taken from the NIST ThermoML archive (doi:10.1021/je0601457).

Assay: xn = mol fraction of the nth substance listed

Cc1cnccn1 [2-methylpyrazine] + O=C=O
Fluid (supercritical or subcritical phases), Linear displacement technique
Details	mass density [kg/m3]
329.15 K, 13140 kPa, x1 = 0.017	626
329.15 K, 14240 kPa, x1 = 0.017	652
331.05 K, 10450 kPa, x1 = 0.081	785
331.05 K, 10590 kPa, x1 = 0.081	785
331.65 K, 6380 kPa, x1 = 0.624	896
331.65 K, 9900 kPa, x1 = 0.624	901
331.65 K, 13480 kPa, x1 = 0.624	904
331.65 K, 18240 kPa, x1 = 0.624	910
332.35 K, 11210 kPa, x1 = 0.023	375
332.35 K, 12340 kPa, x1 = 0.023	438
332.35 K, 13280 kPa, x1 = 0.023	470
332.35 K, 15340 kPa, x1 = 0.023	519
332.35 K, 16620 kPa, x1 = 0.023	540
332.45 K, 12000 kPa, x1 = 0.122	863
332.45 K, 13550 kPa, x1 = 0.122	881
332.45 K, 15590 kPa, x1 = 0.122	901
333.55 K, 11790 kPa, x1 = 0.033	617
333.55 K, 12720 kPa, x1 = 0.033	679
333.55 K, 13340 kPa, x1 = 0.033	719
333.55 K, 15340 kPa, x1 = 0.033	780
335.65 K, 9480 kPa, x1 = 0.264	822
335.65 K, 10900 kPa, x1 = 0.264	829
335.65 K, 14380 kPa, x1 = 0.264	842
335.65 K, 17720 kPa, x1 = 0.264	852
336.95 K, 12340 kPa, x1 = 0.062	716
336.95 K, 13280 kPa, x1 = 0.062	743
336.95 K, 14520 kPa, x1 = 0.062	775
336.95 K, 16970 kPa, x1 = 0.062	820
337.05 K, 3620 kPa, x1 = 0.857	892
337.05 K, 5550 kPa, x1 = 0.857	893
337.05 K, 9000 kPa, x1 = 0.857	897
337.05 K, 13590 kPa, x1 = 0.857	901
338.55 K, 12240 kPa, x1 = 0.081	752
338.55 K, 13210 kPa, x1 = 0.081	765
338.55 K, 14930 kPa, x1 = 0.081	774
339.25 K, 10930 kPa, x1 = 0.156	847
339.25 K, 13760 kPa, x1 = 0.156	869
339.25 K, 17210 kPa, x1 = 0.156	884
340.45 K, 11280 kPa, x1 = 0.017	346
340.45 K, 11480 kPa, x1 = 0.017	371
340.45 K, 11970 kPa, x1 = 0.017	408
340.45 K, 12790 kPa, x1 = 0.017	455
341.55 K, 14410 kPa, x1 = 0.091	782
341.55 K, 15410 kPa, x1 = 0.091	801
341.55 K, 17340 kPa, x1 = 0.091	828
342.35 K, 11760 kPa, x1 = 0.023	283
342.35 K, 11970 kPa, x1 = 0.023	291
342.35 K, 12340 kPa, x1 = 0.023	300
344.65 K, 12480 kPa, x1 = 0.033	482
344.65 K, 13170 kPa, x1 = 0.033	529
344.65 K, 13860 kPa, x1 = 0.033	578
344.65 K, 14660 kPa, x1 = 0.033	620
344.65 K, 15310 kPa, x1 = 0.033	649
344.65 K, 16550 kPa, x1 = 0.033	683
344.95 K, 11340 kPa, x1 = 0.339	920
344.95 K, 18720 kPa, x1 = 0.339	941
345.05 K, 10790 kPa, x1 = 0.264	808
345.05 K, 12720 kPa, x1 = 0.264	818
345.05 K, 15280 kPa, x1 = 0.264	828
345.05 K, 19170 kPa, x1 = 0.264	842
346.15 K, 14380 kPa, x1 = 0.039	582
346.15 K, 15070 kPa, x1 = 0.039	617
348.65 K, 7590 kPa, x1 = 0.624	879
348.65 K, 11830 kPa, x1 = 0.624	884
348.65 K, 16240 kPa, x1 = 0.624	890

Liquid, linear displacement
Details	mass density [kg/m3]
331.05 K, x1 = 0.081	785
331.65 K, x1 = 0.624	892
332.35 K, x1 = 0.023	323
332.45 K, x1 = 0.122	840
333.55 K, x1 = 0.033	574
335.65 K, x1 = 0.264	822
336.95 K, x1 = 0.062	689
337.05 K, x1 = 0.857	888
338.55 K, x1 = 0.081	746
339.25 K, x1 = 0.156	843
341.55 K, x1 = 0.091	731
344.95 K, x1 = 0.339	913
345.05 K, x1 = 0.264	808
346.15 K, x1 = 0.039	462
